tested on: mouse ES cells (RARβ, Cyp26a1 transcripts); test: RT-PCR of RA-responsive genes in WT and RARβ KO ES cells; format: cell-based; conditions: WT ES cells, presence of RA vs untreated
Procedure: C57BL/6 RARβ heterozygous mice were provided by Dr. Pierre Chambon (Strasbourg-Cedex, France) (26). Homozygous RARβ-null mice were obtained following mating of RARβ heterozygous mice. Blastocysts were harvested on day E3.5 and individually cultured on ES cell medium as previously described (28).
Various markers for endodermal (day 5), pancreatic progenitor (day 11), endocrine progenitor (day 14) and endocrine (day 17) differentiation were analyzed by semi-quantitative RT-PCR in J1 wild-type and RARβ KO ESCs. Primers were designed around introns whenever possible. Total RNA extraction, semi-quantitative and quantitative PCR reactions were performed as previously described (18). Amplified PCR products were resolved on 1.5% agarose gels and visualized by staining with ethidium bromide. PCR bands were sequenced for verification of the correct amplicon. Quantitation of semi-quantitative gels was performed using ImageJ software (National Institutes of Health) from three experimental biological repeats.

| SMILES | RARβ signal (RT-PCR) |
| --- | --- |
| CC1=C(/C=C/C(C)=C/C=C/C(C)=C/C(=O)O)C(C)(C)CCC1 [RA, all trans-retinoic acid] | stronger RARβ signal |

same assay, conditions: WT and RARβ KO ES cells, RA-treated

| SMILES | Cyp26a1 expression (RT-PCR) |
| --- | --- |
| CC1=C(/C=C/C(C)=C/C=C/C(C)=C/C(=O)O)C(C)(C)CCC1 [RA, all trans-retinoic acid] | observed in both WT and RARβ KO ES cells |

target: T1, RARβ2 (Homo sapiens, UniProt P10826); test: not given; set-up: expressed in transfected cells; conditions: from Table 1 and Table 2 of WO2007/009083; cited from earlier work
T1 sequence (P10826 1-448 isoform P10826-2): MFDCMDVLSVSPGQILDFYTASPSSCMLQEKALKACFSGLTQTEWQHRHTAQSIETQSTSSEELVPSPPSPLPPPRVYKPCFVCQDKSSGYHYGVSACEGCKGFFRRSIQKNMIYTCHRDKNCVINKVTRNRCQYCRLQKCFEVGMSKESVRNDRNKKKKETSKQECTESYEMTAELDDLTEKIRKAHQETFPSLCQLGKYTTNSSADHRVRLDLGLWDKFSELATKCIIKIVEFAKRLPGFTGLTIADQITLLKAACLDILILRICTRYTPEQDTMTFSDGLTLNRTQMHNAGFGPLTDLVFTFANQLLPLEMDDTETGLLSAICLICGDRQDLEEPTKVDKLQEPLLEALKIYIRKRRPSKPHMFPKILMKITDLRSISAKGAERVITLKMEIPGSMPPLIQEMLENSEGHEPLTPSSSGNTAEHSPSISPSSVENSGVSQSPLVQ

| SMILES | % Eff. | pEC50 |
| --- | --- | --- |
| CCCCCCCc1ccc(-c2ccc(C(=O)O)c(F)c2)cc1 [Compound 36] | 42% | – |
| CCCCCCCc1ccc(-c2ccc(C(=O)O)cc2F)cc1 [Compound 22] | 36% | – |
| CCCCCCCCc1ccc(-c2ccc(C(=O)O)cc2)cc1 [Compound 6] | 104% | – |
| CCCCCCOc1ccc(-c2ccc(C(=O)O)cc2)cc1 [Compound 12] | 72% | – |
| CCCCCCCc1ccc(-c2ccc(C(=O)NO)cc2)cc1 [Compound 37] | 49% | – |
| CCCC1CCCC(c2ccc(-c3ccc(C(=O)O)cc3)cc2)CC1 (stereo not drawn) [Compound 49] | 59% | – |
| CCCCCCCCCc1ccc(-c2ccc(C(=O)O)cc2)cc1 [Compound 2] | 126% | – |
| CCCCCCCCc1ccc(-c2ccc(C(=O)O)cc2)cc1 [Compound 35] | 83% | – |
| CCCCCCCc1ccc(-c2ccc(C(=O)O)cc2)cc1 [Compound 9] | 76% | – |
| CCCCCCCCc1ccc(-c2ccc(C(=O)O)cc2)cc1 [Compound 53] | 99% | – |
| O=C(O)c1ccc(-c2ccc(OCCC=C(C3CC3)C3CC3)cc2)cc1 [Compound 47] | 58% | – |
| CCCCCCc1ccc(-c2ccc(C(=O)O)cc2)cc1 [Compound 16] | 37% | – |
| CCCCCCCc1ccc(-c2ccc(C(=O)NCCc3ccccn3)cc2)cc1 [Compound 59] | 35% | – |
| CCCCCCCCCCOc1ccc(-c2ccc(C(=O)O)cc2)cc1 [Compound 20] | 98% | – |
| CCCCCCCc1ccc(-c2ccc(C(=O)NN)cc2)cc1 [Compound 45] | 78% | – |
| CCCCCCc1ccc(-c2ccc(C(=O)Nc3ccc(C)cn3)cc2)cc1 [Compound 63] | 36% | – |
| CCCOCCOc1nc(-c2ccc(C(=O)O)cc2)sc1C [Compound 33] | 98% | – |
| Cc1sc(-c2ccc(C(=O)O)cc2)nc1OCC(=O)NC1CCC(C)CC1 (stereo not drawn) [Compound 58] | 66% | – |
| CCCCCCCCN1CCN(c2ccc(C(=O)O)cc2)CC1 [Compound 50] | 85% | – |
| CCCCc1ccc(-c2ccc(C(=O)O)cc2)cc1 [Compound 26] | 36% | 7.15 |
| CCCCCCNC(=O)COc1nc(-c2ccc(C(=O)O)cc2)sc1C [Compound 13] | 85% | – |
| CCCCOCCOc1nc(-c2ccc(C(=O)O)cc2)sc1C [Compound 27] | 95% | – |
| Cc1sc(-c2ccc(C(=O)O)cc2)nc1OCC(=O)NC1CCCCCC1 [Compound 56] | 105% | – |

| SMILES | % Eff. | pEC50 |
| --- | --- | --- |
| CCCCCCCCc1ccc(-c2ccc(C(=O)Nc3ccc(C)cn3)cc2)cc1 [Compound 29] | 78% | – |
| CCCCC(CC)COc1nc(-c2ccc(C(=O)O)cc2)sc1C (stereo not drawn) [Compound 46] | 54% | – |
| CCCCOCCOc1ccc(-c2ccc(C(=O)O)cc2)cc1 [Compound 18] | 108% | – |
| Cc1sc(-c2ccc(C(=O)O)cc2)nc1OCC(=O)NC(C)CCC(C)C (stereo not drawn) [Compound 57] | 77% | – |
| CCCCCCCCOc1ccc(-c2ccc(C(=O)O)cc2)cc1 [Compound 32] | 70% | – |
| CCCCNC(=O)COc1nc(-c2ccc(C(=O)O)cc2)sc1C [Compound 62] | 37% | – |
| CCCCCCCCc1ccc(-c2ccc(C(=O)O)cc2F)cc1 [Compound 38] | 70% | 6.81 |
| CCCCOCCOc1cc(C)c(-c2ccc(C(=O)O)cc2)cc1C [Compound 44] | 41% | – |
| CCCCCCCCc1ccc(-c2ccc(C(=O)C(=O)O)cc2)cc1 [Compound 31] | 80% | – |
| CCCCCCCc1ccc(-c2ccc(C(=O)O)c(C)c2)cc1 [Compound 52] | 45% | 6.41 |
| CCCCCCCCc1ccc(-c2ccc(C(=O)O)c(C)c2)cc1 [Compound 55] | 84% | – |
| CCCCCCCCc1ccc(-c2ccc(C(=O)n3cnc(NC(C)=O)n3)cc2)cc1 [Compound 15] | 76% | – |
| CCCCCCCCOc1ccc(-c2ccc(C(=O)NCCc3ccccn3)cc2)cc1 [Compound 54] | 39% | – |
| CCCCCCCCOc1ccc(-c2ccc(C(=O)NCCC#N)cc2)cc1 [Compound 51] | 59% | – |
| CCCCCc1ccc(-c2ccc(C(=O)O)cc2)cc1 [Compound 4] | 44% | – |
| CCCCCCCCc1ccc(-c2ccc(C(=O)n3ccnc3)cc2)cc1 [Compound 8] | 79% | 7.66 |
| CCCCCCOc1cc(C)c(-c2ccc(C(=O)O)cc2)cc1C [Compound 11] | 78% | – |
| CCCCCCCOc1ccc(-c2ccc(C(=O)O)cc2)cc1 [Compound 24] | 58% | – |
| Cc1sc(-c2ccc(C(=O)O)cc2)nc1OCC(=O)NC1CCCC1 [Compound 61] | 39% | – |
| CCCCCCCc1ccc(-c2ccc(C(=O)O)cc2)cc1 [Compound 10] | 64% | – |
| CCCCCCCCc1ccc(-c2ccc(C(=O)NS(C)(=O)=O)cc2)cc1 [Compound 60] | 51% | – |
| CC(C)CCCCOc1ccc(-c2ccc(C(=O)O)cc2)cc1 [Compound 25] | 65% | – |
